How the values were obtained:
[1] = Electrospray ionization mass spectrometry: biotin molecules bound per avidin tetramer; type: binding; conditions: spectra with or without biotin
Procedure: Biospin columns (Bio-Rad) are equilibrated by spinning 5 times in 500 μL of 15 mM ammonium acetate pH 7.8 at 1000 g for 2 min. Then 30-50 μL of 30 μM protein in PBS is buffer-exchanged into 15 mM ammonium acetate pH 7.8 using the pre-equilibrated Biospin columns by spinning for 20 s at 1000 g. To ensure that PBS is completely removed, the flow-through is again buffer-exchanged with a second pre-equilibrated column for 20 s. This procedure also removes free biotin when the starting 30 μM avidin forms are incubated with 200 μM biotin. Less than 2 min before introducing into the mass spectrometer, the buffer-exchanged samples are diluted with a solution of 1:1 15 mM ammonium acetate pH 7.8 and 78% acetonitrile, 0.01% trifluoroacetic acid.
(§1) An Advion nanospray robot (Advion BioSystems, Ithica, N.Y.) with a back-pressure of 0.45 Psi introduces the samples into the mass spectrometer, an 8.5 Tesla custom-built Electrospray Ionisation-Fourier Transform Mass Spectrometer. To visualize the non-covalent tetramers and non-covalent biotin binding in the high m/z range, the following settings are used: Chirp rate=750 Hz, Amplitude=0.5 V p-p, Tube lens=200 V, Capillary heater 2 V, Quad filter=−20 V, Skimmer=0 V, Capillary offset=34 V, X-fer=−110 V, Leak gas=4.2×10^−5 Torr. The capillary heater is kept low and the Quad filter and Skimmer are kept either high or off to prevent subunit dissociation. The transfer is set to this low value of −110 V in order to visualize the high m/z region.
The masses are calculated manually by first determining the charge state. The final mass is determined by multiplying the observed m/z by the charge and subtracting the mass corresponding to the addition of protons to give that charge. This calculation is repeated for each charge state and the mean and standard deviation reported. The spectra are calibrated with tetrameric avidin, after its monomer mass is determined under denaturing conditions. […]

[2] = Electrospray ionization mass spectrometry: biotin molecules bound per streptavidin tetramer; type: binding
Procedure: Biospin columns (Bio-Rad) were equilibrated by spinning 5 times in 500 μL of 15 mM ammonium acetate pH 7.8 at 1000 g for 2 min. Then 30-50 μL of 30 μM protein in PBS was buffer-exchanged into 15 mM ammonium acetate pH 7.8 using the pre-equilibrated Biospin columns by spinning for 20 s at 1000 g. To ensure that PBS was completely removed, the flow-through was again buffer-exchanged with a second pre-equilibrated column for 20 s. This procedure also removed free biotin when the starting 30 μM streptavidin forms were incubated with 200 μM biotin. Less than 2 min before introducing into the mass spectrometer, the buffer-exchanged samples were diluted with a solution of 1:1 15 mM ammonium acetate pH 7.8 and 78% acetonitrile, 0.01% trifluoroacetic acid.
as §1, with “Psi introduced” for “Psi introduces”, “settings were” for “settings are”, “heater was” for “heater is”, “Skimmer were” for “Skimmer are”, “transfer was” for “transfer is”
The masses were calculated manually by first determining the charge state. The final mass was determined by multiplying the observed m/z by the charge and subtracting the mass corresponding to the addition of protons to give that charge. For example, for the 15+charge state of D4 an m/z of 3534.159 was obtained. (15×3534.159)-(15×1.00727) gave a mass for this ion of 52,997 Da. This calculation was repeated for each charge state and the mean and standard deviation reported. The spectra were calibrated with tetrameric streptavidin, after its monomer mass was determined under denaturing conditions (Mr=13,271.4 Da). Average masses were predicted from the DNA sequence, using the ExPASy PeptideMass Calculator (ca.expasy.org/tools/peptide-mass.html) and assuming removal of the N-terminal formyl-Methionine.
The different tetramers were purified using a Ni-nitrilotriacetic acid (NTA) column, eluting according to the number of His6-tags with increasing concentrations of imidazole. […] The tetramer composition was further confirmed by boiling the samples before loading on SDS-PAGE, to determine the ratio of A to D subunits (FIG. 1D), and by electrospray ionization mass spectrometry. In Table 1 (Schwartz, B. L. et al., J. of the Amer. Soc. for Mass Spec. 6: 459-465, 1995) the observed mass (±s.d.), determined by Electrospray Ionization-Mass Spectrometry, is compared to the mass predicted from the sequence. From the change (±s.e.m.) upon addition of biotin (mass 244.31), we determined how many biotin molecules were bound to each tetramer.
Electrospray ionization mass spectrometry was used to characterize the number of biotin molecules bound per tetramer. Spectra of the different streptavidin tetramers with or without biotin were acquired. […] The other chimeric tetramers bound one biotin per A subunit.

[3] = tested on: biotinylated AP-CFP-TM on HeLa cells; experiment: Staining of biotinylated AP-CFP-TM on HeLa with Alexa Fluor 568-conjugated streptavidins; type: cell-based; conditions: Alexa Fluor 568 conjugate 10 μg/mL, 10 min at 4° C.
Procedure: Enzymatic biotinylation and imaging of HeLa transfectants were performed as previously described (Howarth, M. et al., Proc. Natl. Acad. Sci. USA 102: 7583-7588, 2005), except instead of 10 μM biotin and 1 mM ATP, we added 10 μM biotin-AMP (synthesized according to Coleman and Huang; Coleman, T. M. and Huang, F. Chem. Biol. 9: 1227-1236, 2002) to give equivalent biotinylation but minimizing the risk of purinoreceptor activation by ATP (Rathbone, M. P. et al., Prog. Neurobiol. 59: 663-690, 1999). […] Biotinylation of neurons was performed at day in vitro (DIV) 8 in Hanks' Balanced Salt Solution (HBSS) (Invitrogen) with 0.2 μM biotin ligase and 10 μM biotin-AMP for 5 min at 37° C. […] Neurons were washed with NeuroBasal media (Invitrogen) supplemented with B-27 (Invitrogen), 50 U/mL penicillin, 50 μg/mL streptomycin, and 0.2 mM L-glutamine and chased in the same medium for 0 or 2 hr at 37° C. Cells were then fixed in −20° C. methanol. […]
Images of HeLa cells were collected on a Zeiss Axiovert 200M inverted epifluorescence microscope using a 40× oil-immersion lens and a MicroMAX CCD camera (Roper Scientific; Tucson, Ariz.). CFP (420DF20 excitation, 450DRLP dichroic, 475DF40 emission) and Alexa568 (560DF20 excitation, 585DRLP dichroic, 605DF30 emission) images were collected and analyzed using OpenLab software (Improvision; Lexington, Mass.). Fluorescence images were background-corrected. […] Images were scaled to 16 bits and analyzed in Northern Eclipse (Empix Imaging; Ontario, Canada) with user-written software. […] Results were then calculated in terms of clusters per micrometer of dendrite. For assessment of pre-synaptic terminals, clusters were determined as before and average grey levels of clusters were compared between transfected dendrites and untransfected dendrites within the same field of view. […] “n” represents the number of transfected neurons for which clusters were measured. […]

[4] = tested on: biotinylated AP-neuroligin-1 on hippocampal neurons; experiment: AP-neuroligin-1 clustering in hippocampal neurons labeled with streptavidin; type: cell-based, rat; conditions: two hour incubation at 37° C., Alexa Fluor 568 conjugate; ± s.e.m., n=9
Procedure: HeLa cells were grown in Dulbecco's Modified Eagle Medium (DMEM) with 10% Fetal Calf Serum, 50 U/mL penicillin and 50 μg/mL streptomycin. HeLa stably expressing AP-CFP-TM or Ala-CFP-TM have been previously described (Howarth, M. et al., Proc. Natl. Acad. Sci. USA 102: 7583-7588, 2005). Dissociated primary neuronal cultures were prepared from Embryonic Day 18 or 19 (E18/19) rats and transfected with Lipofectamine 2000 at DIV6 as in Levinson et al. (Levinson, J. N. et al., J. Biol. Chem. 280: 17312-17319, 2005). […]
Images of HeLa cells were collected on a Zeiss Axiovert 200M inverted epifluorescence microscope using a 40× oil-immersion lens and a MicroMAX CCD camera (Roper Scientific; Tucson, Ariz.). CFP (420DF20 excitation, 450DRLP dichroic, 475DF40 emission) and Alexa568 (560DF20 excitation, 585DRLP dichroic, 605DF30 emission) images were collected and analyzed using OpenLab software (Improvision; Lexington, Mass.). Fluorescence images were background-corrected. […] Images were scaled to 16 bits and analyzed in Northern Eclipse (Empix Imaging; Ontario, Canada) with user-written software. […] Results were then calculated in terms of clusters per micrometer of dendrite. For assessment of pre-synaptic terminals, clusters were determined as before and average grey levels of clusters were compared between transfected dendrites and untransfected dendrites within the same field of view. […]

[5] = Off-rate of 3H-biotin from streptavidin (cold biotin chase); type: binding; conditions: 50 μM cold biotin chase, 5 hours at 37° C., ± s.e.m.
Procedure: (Green, N. M. Methods in Enzymol. 184: 51-67, 1990). Dissociation was then initiated by addition of cold biotin at a final concentration of 50 μM and time-points taken over 5 hours at 37° C. 50 μL aliquots were removed and added to 200 μL 0.2M ZnSO4 chilled on ice, followed by 200 μL 0.2 M NaOH. The protein precipitate was pelleted by centrifugation at 16,500 g for 5 min, and ^3H-biotin in the supernatant was measured by liquid scintillation counting. Data were plotted as ln(fraction bound) versus time, and fit to a straight line by linear regression. Dissociation rates were deduced from the slope of the line and the equation: ln(fraction bound)=−koff(t) where fraction bound=(total ^3H-biotin−free ^3H-biotin at timepoint)/(total ^3H-biotin−free ^3H-biotin before cold biotin chase).

Row | biotin binding per avidin tetramer by mass spectrometry (in words) [1] | biotin binding per tetramer by mass spectrometry (in words) ([2]; spectra with or without biotin) | Substance | # biotins (bound to each tetramer) ([2]; from mass change upon addition of biotin, 30 μM protein, 200 μM biotin) | Alexa staining of biotinylated AP-CFP-TM [3] | AP-neuroligin-1 clusters per micrometer of dendrite [4] [clusters/μm] | off-rate from biotin [5]
1 | all four subunits | all four subunits | A4: Wild-type streptavidin with a His6-tag, four Alive subunits (SEQ ID NO:4) [Tetramer A4] | 4 |  |  | 
2 |  |  | wild-type streptavidin: Wild-type core streptavidin tetramer with 4 biotin binding sites (SEQ ID NO:2) [reference compound] |  | detected equally well | 0.266±0.011 | 5.17±0.25×10^−5 s^−1

Reference: patent publication US20070105162A1, “Monovalent avidin and streptavidin compositions” (Massachusetts Institute of Technology, priority 2005, published 2007)
